The assay addresses mGluR4 (Homo sapiens, UniProt Q14833). As to the kind of experiment: mGlu4 PAM potentiation assay, CHO cells transfected with human mGluR4, Ca2+-sensitive dye fluorescence. The assay is classed as cell-based. As to the method: The disclosed compounds and compositions can be evaluated for their ability to act as a potentiator of metabotropic glutamate receptor activity, in particular mGluR4 activity, by any suitable known methodology known in the art. For example, Chinese Hamster Ovary (CHO) cells transfected with human mGluR4 or HEK cells co-transfected with rat mGluR4 and the G-protein regulated Inwardly Rectifying Potassium channel (GIRK) were plated in clear bottom, assay plates for assay in a Hamamatsu FDSS Fluorometric Plate Reader. The cells were loaded with either a Ca2+-sensitive fluorescent dye or the thallium responsive dye and the plates were washed and placed into a suitable kinetic plate reader. For human mGluR4 assays, a fluorescence baseline was established for 3-5 seconds, the disclosed compounds were then added to the cells, and the response in cells was measured. Approximately two and a half minutes later, a concentration of mGluR4 orthosteric agonist (e.g. glutamate, L-AP4, or L-SOP) eliciting approximately 20% (EC20) of the maximal agonist response was added to the cells, and the response was measured. Two minutes later, a concentration of mGluR4 agonist (e.g. glutamate, L-AP4, or L-SOP) eliciting 80% (EC80) of the maximal agonist response was added to the cells, and the response was measured. For rat mGluR4/GIRK experiments, a baseline was established for approximately five seconds, disclosed compounds were added, and either an EC20 or EC80 concentration of agonist was added approximately two and one half minutes later. Potentiation or antagonism of the agonist response of mGluR4 by the disclosed compounds was observed as an increase or decrease in response to the EC20 concentration of agonist in the presence of compound compared to the response to agonist in the absence of compound. Similarly, potentiation or antagonism of the agonist response of mGluR4 by the disclosed Compounds was observed as an increase or decrease in response to the EC80 concentration of agonist in the presence of compound compared to the response to agonist in the absence of compound.
The above described assay operated in two modes. In the first mode, a range of concentrations of the disclosed compounds are added to cells, followed by a single fixed concentration of agonist. If the compound acts as a potentiatior, an EC50 value for potentiation and a maximum extent of potentiation by the compound at this concentration of agonist is determined by non-linear curve fitting. If the compound acts as an antagonist, an IC50 value is determined by non-linear curve fitting. In the second mode, several fixed concentrations of the disclosed compounds are added to various wells on a plate, followed by a range in concentrations of agonist for each concentration of disclosed compound. The EC50 values for the agonist at each concentration of compound are determined by non-linear curve fitting. A decrease in the EC50 value of the agonist with increasing concentrations of the sample compound (a leftward shift of the agonist concentration-response curve) is an indication of the degree of mGluR4 potentiation at a given concentration of the sample compound. A decrease in the maximal response of the agonist with increasing concentrations of the sample compounds, with or without a rightward shift in agonist potency, is an indication of the degree of antagonism at mGluR4. The second mode also indicates whether the sample compounds also affect the maximum response to mGluR4 to agonists.

EC50 data for 66 compounds are collected here from US11319304B2, “Pyridine quinoline compounds as MGLUR4 allosteric potentiators, compositions, and methods of treating neurological dysfunction” (Vanderbilt University, priority 2017, dated 2022).

Broadly, the EC50 is the concentration needed to bring the measured effect to its halfway point.

mGluR4, sequence (Q14833 33-912 limits assumed): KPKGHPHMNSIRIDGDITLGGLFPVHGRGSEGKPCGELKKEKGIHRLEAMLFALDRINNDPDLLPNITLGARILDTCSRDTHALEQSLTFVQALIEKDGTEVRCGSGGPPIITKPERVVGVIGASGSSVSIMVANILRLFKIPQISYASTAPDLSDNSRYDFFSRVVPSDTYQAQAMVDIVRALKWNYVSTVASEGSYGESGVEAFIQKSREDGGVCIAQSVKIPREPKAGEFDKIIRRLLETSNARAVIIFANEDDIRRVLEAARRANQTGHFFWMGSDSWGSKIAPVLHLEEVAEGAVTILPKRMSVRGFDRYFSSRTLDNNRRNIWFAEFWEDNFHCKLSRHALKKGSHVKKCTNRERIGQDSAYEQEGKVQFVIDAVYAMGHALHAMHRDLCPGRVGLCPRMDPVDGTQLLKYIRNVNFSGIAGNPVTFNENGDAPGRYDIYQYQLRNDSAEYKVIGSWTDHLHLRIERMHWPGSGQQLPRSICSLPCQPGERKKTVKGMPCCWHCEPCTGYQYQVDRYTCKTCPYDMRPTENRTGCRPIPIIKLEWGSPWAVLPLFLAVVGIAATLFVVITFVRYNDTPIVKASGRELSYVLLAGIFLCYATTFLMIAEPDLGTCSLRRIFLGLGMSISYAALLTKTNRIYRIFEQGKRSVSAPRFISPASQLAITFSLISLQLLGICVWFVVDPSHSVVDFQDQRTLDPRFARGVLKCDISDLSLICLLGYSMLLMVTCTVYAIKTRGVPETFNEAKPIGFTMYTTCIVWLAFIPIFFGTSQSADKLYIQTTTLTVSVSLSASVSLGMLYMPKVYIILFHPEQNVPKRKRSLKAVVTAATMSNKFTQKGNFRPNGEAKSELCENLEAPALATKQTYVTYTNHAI

As to `Cc1ccc(C(=O)Nc2ccc3c(OCC4CCOCC4)nccc3c2)nc1` [Compound 104], the EC50 worked out at 539 nM.
Next, `O=C(Nc1cc(F)c2c(OCC3CCOC3)nccc2c1)c1ncc(F)cc1F` (stereo not drawn) [Compound 83]: 154 nM; `O=C(Nc1ccc2c(OCC3CCOC3)nccc2c1)c1ncc[nH]1` (stereo not drawn) [Compound 58]: 217 nM.
As for `CCOCCOc1nccc2cc(NC(=O)c3ncccc3N)ccc12` [Compound 4], the EC50 was 354 nM.
Next, `CC1(C)CC(COc2nccc3cc(NC(=O)c4ccccn4)ccc23)CCO1` (stereo not drawn) [Compound 34]: 115 nM; `O=C(Nc1cnc2c(OCC3CCOCC3)nccc2c1)c1ccccn1` [Compound 120]: 333 nM.
Then `O=C(Nc1ccc2c(OC3CCOCC3F)nccc2c1)c1ncccc1O` (stereo not drawn) [Compound 42], with 92.2 nM; and `Nc1cccnc1C(=O)Nc1ccc2c(OCC3CCOCC3)nccc2c1` [Compound 2], with 108 nM; and `Nc1cccnc1C(=O)Nc1ccc2c(OC[C@@H]3CCOC3)nccc2c1` [Compound 61], with 114 nM.
Next, `Nc1cccnc1C(=O)Nc1ccc2c(OCC3COCCO3)ncc(F)c2c1` (stereo not drawn) [Compound 68]: 90.5 nM.
For the compound `CC1CC(Oc2nccc3cc(NC(=O)c4ccccn4)ccc23)CCO1` (stereo not drawn) [Compound 43], the EC50 came out at 908 nM.
Next, `O=C(Nc1cc(F)c2c(OCC3CCOC3)nccc2c1)c1ccc(F)cn1` (stereo not drawn) [Compound 81]: 81.6 nM.
Then `Nc1cccnc1C(=O)Nc1ccc2c(OCC3CCOC3)nccc2c1` (stereo not drawn) [Compound 16], with 71.4 nM.
For the compound `CC1(C)CC(Oc2nccc3cc(NC(=O)c4ccccn4)ccc23)CCO1` (stereo not drawn) [Compound 23], the EC50 amounted to 146 nM.
Regarding `O=C(Nc1ccc2c(OCC3CCOC3)nccc2c1)c1nccs1` (stereo not drawn) [Compound 56], the EC50 came to 210 nM.
For the compound `CC(C)(C)OCCOc1nccc2cc(NC(=O)c3ncccc3N)ccc12` [Compound 29], the EC50 turned out to be 794 nM.
Then `COCCOc1nccc2cc(NC(=O)c3ncccc3N)ccc12` [Compound 21], with 227 nM.
`CC1CC(Oc2nccc3cc(NC(=O)c4ncccc4N)ccc23)CCO1` (stereo not drawn) [Compound 44]: the EC50 turned out to be 804 nM.
Then `O=C(Nc1cc(F)c2c(OCC3CCOCC3)nccc2c1)c1ccc(F)cn1` [Compound 97], with 52.1 nM; and `O=C(Nc1ccc2c(Oc3ccncc3)nccc2c1)c1ccc(F)cn1` [Compound 113], with 608 nM.
Next, `CO[C@H](C)COc1nccc2cc(NC(=O)c3ncccc3N)ccc12` [Compound 7]: 152 nM.
Next, `Nc1cccnc1C(=O)Nc1ccc2c(OC3CCS(=O)(=O)C3)nccc2c1` (stereo not drawn) [Compound 55]: 634 nM; `CC1(C)CC(COc2nccc3cc(NC(=O)c4ncccc4N)ccc23)CO1` (stereo not drawn) [Compound 49]: 665 nM; `O=C(Nc1cc(F)c2c(OCC3CCOCC3)nccc2c1)c1ncccc1F` [Compound 96]: 102 nM.
For `Nc1cccnc1C(=O)Nc1ccc2c(OC[C@H]3CCOC3)nccc2c1` [Compound 62], the EC50 came to 63 nM.
Next, `O=C(Nc1ccc2c(OCC3CCOC3)ncc(F)c2c1)c1ccccn1` (stereo not drawn) [Compound 60]: 82.9 nM.
Next, `Cc1ccoc1C(=O)Nc1ccc2c(OCC3CCOCC3)nccc2c1` [Compound 111]: 122 nM; `Cn1ccnc1C(=O)Nc1ccc2c(OCC3CCOC3)nccc2c1` (stereo not drawn) [Compound 59]: 817 nM; `O=C(Nc1ccc2c(OCC3COCCO3)ncc(F)c2c1)c1ccccn1` (stereo not drawn) [Compound 69]: 421 nM.
Next, `CC1(C)CC(Nc2nccc3cc(NC(=O)c4ncccc4N)ccc23)CCO1` (stereo not drawn) [Compound 76]: 616 nM.
For the compound `O=C(Nc1cc(F)c2c(OCC3CCOC3)nccc2c1)c1ncccc1F` (stereo not drawn) [Compound 80], the EC50 is 312 nM.
Then `COCCOc1nccc2cc(NC(=O)c3ccccn3)ccc12` [Compound 20], with 739 nM; and `Nc1cccnc1C(=O)Nc1cc(F)c2c(OCC3CCOC3)nccc2c1` (stereo not drawn) [Compound 79], with 48.2 nM.
Next, `O=C(Nc1cc(F)c2c(OCC3CCOC3)nccc2c1)c1nc(F)ccc1F` (stereo not drawn) [Compound 84]: 172 nM.
Then `O=C(Nc1ccc2c(OCC3CCOC3)nccc2c1)c1cccc(F)n1` (stereo not drawn) [Compound 87], with 183 nM; and `COCCOc1nccc2cc(NC(=O)c3ncccc3O)ccc12` [Compound 22], with 502 nM; and `CO[C@@H](C)COc1nccc2cc(NC(=O)c3ncccc3O)ccc12` [Compound 53], with 244 nM.
As to `O=C(Nc1cc(F)c2c(OCC3CCOCC3)nccc2c1)c1ncccc1C(F)(F)F` [Compound 98], the EC50 was 978 nM.
In the case of `CC1CC(COc2nccc3cc(NC(=O)c4ncccc4O)ccc23)CCO1` (stereo not drawn) [Compound 39], the EC50 came out at 302 nM.
Then `O=C(Nc1ccc2c(OCC3CCCCO3)nccc2c1)c1ccccn1` (stereo not drawn) [Compound 8], with 159 nM; and `Nc1cccnc1C(=O)Nc1ccc2c(OCC3COCCO3)nccc2c1` (stereo not drawn) [Compound 116], with 63.7 nM; and `O=C(Nc1ccc2c(OCC3COCCO3)ncc(F)c2c1)c1ncccc1O` (stereo not drawn) [Compound 70], with 710 nM.
Take `O=C(Nc1ccc2c(OCC3CCOC3)nccc2c1)c1ccncn1` (stereo not drawn) [Compound 107]: the EC50 worked out at 226 nM.
`CO[C@@H](C)COc1nccc2cc(NC(=O)c3ncccc3N)ccc12` [Compound 52]: the EC50 came to 288 nM.
Next, `O=C(Nc1cc(F)c2c(OCC3COCCO3)nccc2c1)c1ccc(F)cn1` (stereo not drawn) [Compound 93]: 302 nM; `CC(C)(C)OCCOc1nccc2cc(NC(=O)c3ccccn3)ccc12` [Compound 28]: 419 nM.
As to `CC1(C)CC(Oc2nccc3cc(NC(=O)c4ncc(F)cc4F)cc(F)c23)CCO1` (stereo not drawn) [Compound 103], the EC50 amounted to 76.6 nM.
Regarding `Nc1cccnc1C(=O)Nc1ccc2c(OCC3CCCCO3)nccc2c1` (stereo not drawn) [Compound 9], the EC50 is 242 nM.
For `O=C(Nc1ccc2c(O[C@H]3CCOC3)nccc2c1)c1ncccc1O` [Compound 11], the EC50 was found to be 883 nM.
Next, `CO[C@@H](C)COc1nccc2cc(NC(=O)c3ccccn3)ccc12` [Compound 51]: 364 nM; `CC(C)OCCOc1nccc2cc(NC(=O)c3ccccn3)ccc12` [Compound 26]: 264 nM.
Next, `O=C(Nc1ccc2c(OCC3CCOC3)nccc2c1)c1ncccc1Cl` (stereo not drawn) [Compound 19]: 339 nM.
Next, `O=C(Nc1ccc2c(OCC3CCOC3)nccc2c1)c1ccccn1` (stereo not drawn) [Compound 15]: 59.5 nM; `O=C(Nc1cnc2c(OCC3CCOCC3)nccc2c1)c1ccc(F)cn1` [Compound 122]: 454 nM.
For `CC1COCC1COc1nccc2cc(NC(=O)c3ccccn3)ccc12` (stereo not drawn) [Compound 46], the EC50 is 339 nM.
With `CC1CC(COc2nccc3cc(NC(=O)c4ccccn4)ccc23)CCO1` (stereo not drawn) [Compound 37], the half-maximal effective concentration (EC50) came to 88.6 nM.
With `O=C(Nc1ccc2c(OCC3CCOCC3)ncc(F)c2c1)c1ncccc1O` [Compound 67], the EC50 was found to be 246 nM.
Then `O=C(Nc1ccc2c(OCC3CCOC3)nccc2c1)c1ncc(F)cc1Cl` (stereo not drawn) [Compound 88], with 910 nM; and `O=C(Nc1cc(F)c2c(OCC3CCOC3)nccc2c1)c1cccc(F)n1` (stereo not drawn) [Compound 82], with 129 nM.
For the compound `CCOCCOc1nccc2cc(NC(=O)c3ncccc3O)ccc12` [Compound 5], the EC50 worked out at 229 nM.
Then `CC1COCC1COc1nccc2cc(NC(=O)c3ncccc3N)ccc12` (stereo not drawn) [Compound 47], with 456 nM; and `Nc1nccnc1C(=O)Nc1ccc2c(OCC3COCCO3)nccc2c1` (stereo not drawn) [Compound 117], with 334 nM.
Next, `CC1(C)CC(Oc2nccc3cc(NC(=O)c4ncccc4N)cc(F)c23)CCO1` (stereo not drawn) [Compound 106]: 127 nM; `O=C(Nc1ccc2c(OCc3ccncc3)nccc2c1)c1ccc(F)cn1` [Compound 115]: 100 nM; `CC(C)OCCOc1nccc2cc(NC(=O)c3ncccc3N)ccc12` [Compound 27]: 286 nM.
Turning to `O=C(Nc1ccc2c(OC3CCOCC3)nccc2c1)c1ccccn1` [Compound 12], the EC50 worked out at 411 nM.
